For one assay, the system named is BIK. As to the kind of experiment: BIK protein induction under stress conditions (Western blot). The format is cell-based, human. The note with it: human cells. The source says:
Cell lines and culture conditions. The estrogen-dependent cell line MCF-7/BUS was provided by A. M. Soto (Tufts University, Medford, Mass.) and has been described (Soto et al., Environ. Health Perspect. 103:113-22 (1995)). The human embryonic kidney 293T cells and MCF-7/BUS cells were maintained in DMEM supplemented with 10% fetal bovine serum. Estrogen starvation of MCF-7/BUS cells was done as described (Hur et al., PNAS 101:2351-6 (2004)). Briefly, the cells were washed thrice with phenol red-free DMEM and incubated in washing medium at 37° C. for 60 minutes. The MCF-7/BUS cells were then cultured in phenol red-free DMEM supplemented with 5% charcoal/dextran-stripped fetal bovine serum for 24 to 72 hours as indicated. For etoposide treatment, the cells were incubated with 50 μmol/L etoposide for 6 hours and cultured for another 24 hours before harvest.
Western blots and quantitation. The Western blots were done as described (Lee, Methods 35:373-81 (2005)). The primary antibodies were goat anti-BIK (N-19, Santa Cruz Biotechnology, Santa Cruz, Calif.), rat anti-Grp78 (76-E6, Santa Cruz Biotechnology), rat anti-GRP94, rabbit anti-calnexin, rabbit anti-calreticulin (Stressgen, Ann Arbor, Mich.), mouse anti-Flag M2, mouse anti-poly(ADP-ribose) polymerase (PARP; F-2, Santa Cruz Biotechnology, Santa Cruz, Calif.), and mouse anti-h-actin (Sigma-Aldrich, St. Louis, Mo.). Anti-h-actin was diluted at 1:2,000; anti-BIK at 1:500; and other antibodies at 1:1,000. Respective horseradish peroxidase-conjugated secondary antibodies (Santa Cruz Biotechnology, Santa Cruz, Calif.) at 1:1,000 dilution were used. The Western blots were quantitated by Fluor-S® MultiImager (Bio-Rad, Hercules, Calif.) according to the manufacturer's instructions. All quantitations were normalized against h-actin.

The next assay has as its system GRP78. As to the kind of experiment: Western blot of GRP78 in SK-N-SH cells with H129 antibody. It counts as cell-based, human. As to conditions: 0.5 μM thapsigargin 16 hours. Here is the method: FIGS. 11A, 11B and 11C show specific detection of GRP78 by H129 antibody. FIG. 11A is a Western blot assay. The human neuroblastoma SK-N-SH cells were either grown under normal conditions (−) or treated with 0.5 μM thapsigargin for 16 hours. Fifty μg of total cell lysate prepared from these cells were subjected to Western blot analysis, using the […] (1:1000 dilution). […] In FIG. 11B, Chinese hamster ovary (CHO) cells expressing basal level of GRP78 and its derivative C.1 cells overexpressing GRP78 were embedded in paraffin after fixation in formalin. The sections prepared from these blocks were stained with the immunohistochemical technique using the H129 antibody (1:100 dilution). GRP78 level, as depicted by brown staining, was elevated in C.1 cells as compared to CHO cells (600×). In FIG. 11C, paraffin slides from breast cancer patients were stained with the H129 antibody with the immunohistochemical technique. Examples of plasma cell staining from two different patients are shown.

With `C/C=C(/C)C(=O)O[C@H]1C(C)=C2[C@H]([C@@H]1OC(=O)CCCCCCC)[C@@](C)(OC(C)=O)C[C@H](OC(=O)CCC)[C@@]1(O)[C@H]2OC(=O)[C@@]1(C)O` [thapsigargin], the “induction of BIK by ER stress inducers” value with BIK was “do not induce”. In addition, the GRP78 protein band result in the assay with GRP78 is “highly inducible”.

Source of the values: US20100015128A1, “GRP78 as a Predictor of Responsiveness to Therapeutic Agents” (UNIVERSITY OF SOUTHERN CALIFORNIA, priority 2006, published 2010).
